By Kd is commonly meant the free concentration of one partner at which half of the binding sites on the other are occupied at equilibrium, for simple one-to-one binding.

Among the data in publication PMC6196722 (Xenobiotica; the fate of foreign compounds in biological …, 2017) are Kd values, retold here.

The target in experiment [1] is SULT1B1-WT (6xHis tagged) (Homo sapiens, UniProt O43704). The experiment can be described thus: intrinsic fluorescence titration. It is filed as binding.
Experiment [2] deals with SULT1B1-WT (6xHis tagged) (Homo sapiens, UniProt O43704, L145V). The experiment can be described thus: intrinsic fluorescence titration. It is filed as binding.
Sequence of SULT1B1-WT (6xHis tagged) (Homo sapiens, UniProt O43704, L145V) (O43704 whole entry L145V): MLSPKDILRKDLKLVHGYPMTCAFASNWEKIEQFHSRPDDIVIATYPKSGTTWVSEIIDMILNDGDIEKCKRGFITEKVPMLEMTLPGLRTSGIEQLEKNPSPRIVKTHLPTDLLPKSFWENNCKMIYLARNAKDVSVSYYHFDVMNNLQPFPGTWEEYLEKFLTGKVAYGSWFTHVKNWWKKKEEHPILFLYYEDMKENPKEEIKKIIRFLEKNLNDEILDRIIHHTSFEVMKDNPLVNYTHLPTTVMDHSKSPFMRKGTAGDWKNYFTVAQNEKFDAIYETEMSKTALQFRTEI

Sequence of SULT1B1-WT (6xHis tagged) (Homo sapiens, UniProt O43704) (O43704 whole entry): as the sequence (O43704 whole entry L145V) above, with V145L counted along it

`Nc1ncnc2c1ncn2[C@@H]1O[C@H](COP(=O)(O)OS(=O)(=O)O)[C@@H](OP(=O)(O)O)[C@H]1O` [PAPS]: the Kd in experiment [1] amounted to 0.872 µM; in experiment [2] it was 0.98 µM. With `Nc1ncnc2c1ncn2[C@@H]1O[C@H](COP(=O)(O)O)[C@@H](OP(=O)(O)O)[C@H]1O` [PAP], binding in experiment [2] was characterised by a dissociation constant (Kd) of 0.405 µM.
